# Legend:
# [1] = target: T1, TRAF6 binding to the RANK cytoplasmic domain (Mus musculus, UniProt P70196); assay: Competitive GST-pull down assay, TRAF6 binding to RANK cytoplasmic domain; conditions: 100 μM peptide, FLAG-TRAF6 293 cell extract, GST-RANK cytoplasmic domain (FIG. 4C)
# T1 construct: expressed in transfected cells; host or cells: human 293 cells (TRAF lysate); The GST-RANK fusion was purified as previously described
# T1 sequence (P70196 1-530): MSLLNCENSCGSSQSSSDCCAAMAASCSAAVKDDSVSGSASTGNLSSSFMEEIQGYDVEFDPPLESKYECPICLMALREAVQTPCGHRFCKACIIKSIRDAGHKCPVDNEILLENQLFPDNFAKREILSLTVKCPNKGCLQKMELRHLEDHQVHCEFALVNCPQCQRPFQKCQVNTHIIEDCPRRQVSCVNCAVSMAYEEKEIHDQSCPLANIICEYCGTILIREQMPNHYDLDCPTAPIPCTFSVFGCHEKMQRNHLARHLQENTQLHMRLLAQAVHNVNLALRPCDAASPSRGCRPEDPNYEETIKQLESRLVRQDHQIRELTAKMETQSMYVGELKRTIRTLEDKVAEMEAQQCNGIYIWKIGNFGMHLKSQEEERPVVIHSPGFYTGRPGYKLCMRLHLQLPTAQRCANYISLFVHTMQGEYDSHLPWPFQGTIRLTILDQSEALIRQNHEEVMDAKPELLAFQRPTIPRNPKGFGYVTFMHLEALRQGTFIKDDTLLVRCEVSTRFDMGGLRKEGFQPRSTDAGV
# Description: Cellular extracts from human 293 cells transfected with either FLAG-TRAF2, -TRAF5, or -TRAF6 were mixed with GST or GST-RANKed in the absence or presence of 100 μM of the indicated peptides. A GST-pull down assay was performed as described below. The bound TRAFs were visualized by immunoblotting with anti-FLAG antibodies.
# Equivalent amounts of GST or GST-RANK cytoplasmic domain (GST-RANKed) fusion protein attached to 20 μl of glutathione agarose beads were mixed with lysates (50 μg) from 293 cells programmed to express the epitope-tagged TRAF protein and the indicated peptides in binding buffer (20 mM TRIS, pH 8, 150 mM NaCl, 1 mM DTT, 2 mM EDTA, and 0.1% NP-40) and allowed to rotate for 1 h at 4° C. The beads were collected by centrifugation, washed three times in binding buffer, and then washed once in low-salt buffer (20 mM TRIS, pH 8, 50 mM NaCl, and 1 mM DTT). Bound proteins were eluted with addition of SDS-sample buffer and boiled. The eluted proteins were subjected to 7.5% SDS-PAGE and western blot analysis was performed with anti-FLAG antibodies.
# The cytoplasmic domain of RANK interacts with many TRAF molecules, including TRAF1, 2, 3, 5, and 6 (7-9, 11, 12). While TRAF1, 2, 3, and 5 interact with the c-terminal tail of receptor activator of NF-κB, TRAF6 interacts with a membrane proximal region of the cytoplasmic domain of the receptor activator of NF-κB. […]
# JNK = assay: RANKL-mediated JNK activation in RAW264.7 cells (immune complex kinase assay, GST-Jun (1-79) substrate); assay type: cell-based, mouse; conditions: peptide 6 h, RANKL 10 nM 15 min (FIG. 5A)
# Description: RAW264.7 cells were plated in 6-well plates and treated with the indicated peptides for 6 h, then treated with RANKL (10 nM) for 15 mm. Whole cell extracts were prepared and 30 μg of cell lysate was immunoprecipitated with anti-JNK1. In vitro kinase assays were performed using GST-Jun (1-79) as the substrate as described below.
# Lysates were prepared from RAW cells stimulated with RANKL as indicated in the legends to the figures. Approximately 30 μg was then used for immunoprecipitation with indicated antibodies and protein A/G Sepharose beads for 1 h. Beads were collected by centrifugation, washed three times in lysis buffer, and then washed two times in low-salt buffer. JNK activity was analyzed using exogenous GST-Jun (1-79) as a substrate as previously described (8). Kinase activity was quantitated using a PhosphoImager and Imagequant Software (Molecular Dynamics, Sunnyvale, Calif.).
# Stimulation of the receptor activator of NF-κB activates members of the MAPK family including JNK, ERK and p38 kinase. The ability of the TRAF6 binding peptides to inhibit the receptor activator of NF-κB ligand-induced JNK, ERK, and p38 kinase activation was examined in RAW264.7 cells. […] Similar to the results with JNK, only L-T6DP-1 was able to block ERK (FIG. 5B) and p38 kinase (FIG. 5C) activation induced by the receptor activator of NF-κB ligand in RAW264.7 cells.
# [2] = test system: bone marrow-derived mouse monocytes; assay: RANKL and M-CSF-mediated osteoclast differentiation in bone marrow-derived mouse monocytes (TRAP staining); assay type: cell-based
# Description: After 6-7 days, the cells were fixed and stained for TRAP. The numbers of multi-nucleated, TRAP positive osteoclasts were counted.
# Mouse-derived monocytes were plated in 48-well plates and costimulated as in FIG. 3A with murine M-CSF (10 ng/ml) and RANKL (30 ng/ml) in the absence (left panel) or presence of the indicated peptides. After 6-7 days, the cells were fixed and stained for TRAP. A representative field from each well was taken at a magnification of 10×.
# Primary bone marrow monocytes (BM) or RAW264.7 cells were cultured in 48-well dishes at a density of 1×10^5 cells/well or 2×10^3 cells/well, and then treated with the indicated factors at the beginning of the culture and during a medium change on day 3. Osteoclast formation was assessed by counting the total number of multi-nucleated (>3 nuclei), TRAP-positive cells present per well between day 7 and 10 (BM) or on day 5 (RAW264.7) (30).
# To further support the results obtained from the RAW264.7 cell line, the ability of these peptides to inhibit RANKL-mediated osteoclast differentiation in primary mouse-derived monocytes was tested. Costimulation of bone marrow-derived monocytes with RANKL and M-CSF cause osteoclast differentiation after 7-10 days, as determined by staining multi-nucleated, TRAP positive osteoclasts (30). Similar to the results with RAW264.7 cells, both L-T6DP-1 and L-T6DP-2 inhibited the development of TRAP positive osteoclast in a dose-dependent manner and L-T6DP-1 was much more efficient (FIGS. 3A and 3B).
substance,measurement,setting,value
L-T6DP-1: Kaposi fibroblast growth factor signal sequence hydrophobic domain attached to murine RANK peptide containing the known TRAF6 binding domain (AAVALLPAVLLALLAPRKIPTEDEYTDRPSQPST; PEPTIDE Peptide L-T6Bp-1),TRAF6 interaction with the cytoplasmic domain of RANK,[1],inhibited
same,RANKL-mediated JNK activation,JNK,capable of inhibiting
same,development of TRAP positive osteoclasts,"[2]; M-CSF 10 ng/ml and RANKL 30 ng/ml (FIGS. 3A, 3B)",inhibited
same,multi-nucleated osteoclasts,"[2]; M-CSF and RANKL, 30 μM peptide, cells still TRAP positive (FIG. 3B)",multi-nucleated osteoclast were not observed
same,osteoclasts,"[2]; M-CSF and RANKL, 100 μM peptide (FIG. 3B)",no osteoclasts were observed

# From patent US6998383B2, “Inhibitors of receptor activator of NF-κB and uses thereof” (Research Development Corporation, priority 2001, dated 2006)
